# Measurements taken from US7057048B2, “Androgen receptor antagonists” (Warner Lambert Company LLC, priority 2003, dated 2006).
# Target: T1, androgen receptor (Homo sapiens, UniProt P10275)
# T1 sequence (P10275 1-920 Q868H): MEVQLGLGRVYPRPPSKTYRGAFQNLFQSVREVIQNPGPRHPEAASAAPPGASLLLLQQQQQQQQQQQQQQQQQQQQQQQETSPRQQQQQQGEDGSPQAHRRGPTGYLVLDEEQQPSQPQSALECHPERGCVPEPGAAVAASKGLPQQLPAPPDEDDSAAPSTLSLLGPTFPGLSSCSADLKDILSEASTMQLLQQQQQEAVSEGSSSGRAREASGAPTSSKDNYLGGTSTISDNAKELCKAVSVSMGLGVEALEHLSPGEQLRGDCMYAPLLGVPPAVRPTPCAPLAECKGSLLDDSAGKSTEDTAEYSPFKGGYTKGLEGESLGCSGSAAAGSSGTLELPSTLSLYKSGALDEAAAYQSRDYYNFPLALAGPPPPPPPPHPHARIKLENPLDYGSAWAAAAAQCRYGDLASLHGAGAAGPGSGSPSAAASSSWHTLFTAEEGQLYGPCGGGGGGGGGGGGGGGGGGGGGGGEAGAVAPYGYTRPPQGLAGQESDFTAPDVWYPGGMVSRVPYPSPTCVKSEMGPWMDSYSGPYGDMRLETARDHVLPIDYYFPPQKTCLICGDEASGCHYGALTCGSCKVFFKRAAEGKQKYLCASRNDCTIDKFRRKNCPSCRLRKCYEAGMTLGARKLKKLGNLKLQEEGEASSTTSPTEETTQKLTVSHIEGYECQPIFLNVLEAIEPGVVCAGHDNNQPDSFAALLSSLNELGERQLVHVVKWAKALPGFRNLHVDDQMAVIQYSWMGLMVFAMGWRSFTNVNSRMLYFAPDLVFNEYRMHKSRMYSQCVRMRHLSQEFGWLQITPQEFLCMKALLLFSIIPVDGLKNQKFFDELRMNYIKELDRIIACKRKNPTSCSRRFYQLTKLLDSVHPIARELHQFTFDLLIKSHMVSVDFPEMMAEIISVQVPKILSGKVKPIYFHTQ
# Assay: AR Antagonist Cell Assay (MMTV-luciferase reporter, DHT-stimulated)
# Format: cell-based
# Conditions: MDA-MB453-MMTV clone 54-19 cells, inhibition of induction by 100 pM DHT, 17 hr
# Method: The compounds ability to antagonize the effects of androgen on the androgen receptor were determined in the protocol described immediately below.
# Experimental Procedure for AR Antagonist Cell Assay
# Cell line: MDA-MB453-MMTV clone 54-19. This cell line is a stable transfected cell line with MDA-MB453 cell background (human breast tumor cell expressing high level of androgen receptor). A MMTV minimal promoter containing ARE was first cloned in front of a firefly luciferase reporter gene. Then the cascade was cloned into transfection vector pUV120puro. Electroporation method was used for transfecting MDA-MB-453 cell. Puromycin resistant stable cell line was selected.
# Cell Culture Media and Reagents:
# Culture medium: DMEM (high glucose, Gibco cat #: 11960-044), 10% FBS, and 1% L-glutamine
# Plating medium: DMEM (phenol red free), 10% charcoal treated HyClone serum, 1% L-glutamine
# Assay medium: DMEM (phenol red free), 1% charcoal treated HyClone serum, 1% L-glutamine, and 1% penicillin/streptomycin
# 3×luciferase buffer: 2% beta-mercaptoethanol, 0.6% ATP, 0.0135% luciferine in cell lysis buffer
# • 1. Cells are maintained in culture medium, splitting cells when they reach 80–90% confluence • 2. To test compounds, 10,000 cells/well are plated to opaque 96 cell culture plate in 100 ul/well plating medium, culture for overnight at 37° C. in cell culture incubator • 3. Carefully remove plating medium, then add 80 ul/well of pre-warmed assay medium, add 10 ul/well testing compound (final concentration at 10 uM or 1 uM), incubate at 37° C. for 30 minutes • 4. Add 10 ul/well freshly prepared DHT (final concentration at 100 pM) to each well, incubate at 37° C. for 17 hr (overnight) • 5. Add 50 ul/well 3×luciferase buffer, incubate at room temperature for 5 minutes, then count on Luminometer
# The fold induction over background by 100 pM DHT in the absence of testing compounds is standardized as 100% and experimental result is expressed as percentage of inhibition by testing compounds.
row,Compound,IC50
1,"COc1cc2c(cc1OC)CN(S(=O)(=O)c1ccc(Cc3ccc4oc(=O)cc(C(F)(F)F)c4c3)cc1)CC2 [Example 35, 6-[4-(6,7-Dimethoxy-3,4-dihydro-1H-isoquinoline-2-sulfonyl)benzyl]-4-trifluoromethylchromen-2-one]",1.2 µM
2,"O=c1cc(C(F)(F)F)c2cc(Cc3ccc(S(=O)(=O)N4CCC(O)CC4)cc3)ccc2o1 [Example 56, 6-[4-(4-Hydroxypiperidine-1-sulfonyl)benzyl]-4-trifluoromethylchromen-2-one]",> 10 µM
3,"O=c1cc(C(F)(F)F)c2cc(Cc3ccc(S(=O)(=O)N4CCCc5ccccc54)cc3)ccc2[nH]1 [Example 26, 6-[4-(3,4-Dihydro-2H-quinoline-1-sulfonyl)benzyl]-4-trifluoromethyl-1H-quinolin-2-one]",2 µM
4,"O=c1cc(C(F)(F)F)c2cc(Cc3ccc(S(=O)(=O)N4CCCC4CO)cc3)ccc2[nH]1 (centres unmarked) [Example 18, 6-[4-(2-Hydroxymethylpyrrolidine-1-sulfonyl)benzyl]-4-trifluoromethyl-1H-quinolin-2-one]",8 µM
5,"CC1CCN(S(=O)(=O)c2ccc(Cc3ccc4[nH]c(=O)cc(C(F)(F)F)c4c3)cc2)CC1 [Example 15, 6-[4-(4-Methylpiperidine-1-sulfonyl)benzyl]-4-trifluoromethyl-1H-quinolin-2-one]",> 10 µM
